Test results: patent publication US9556135B2, “Amino-dihydrothiazine and amino-dioxido dihydrothiazine compounds as beta-secretase antagonists and methods of use” (Amgen Inc., priority 2012, dated 2017)

System: Abeta 40
Experiment: In vivo inhibition of beta-secretase: Abeta 40 reduction in CSF and brain of the rat
Settings: 10 mpk (unless otherwise noted), after 4 hrs
From the text: In Vivo Inhibition of Beta-Secretase
Several animal models, including mouse, rat, dog, and monkey, may be used to screen for inhibition of beta-secretase activity in vivo following administration of a test compound sample. Animals used in this invention can be wild type, transgenic, or gene knockout animals. […] One to twenty-four hours following the administration of compound, animals are sacrificed, and brains as well as cerebrospinal fluid (CSF) and plasma are removed for analysis of A-beta levels and drug or test compound concentrations (Dovey et al., 2001, Journal of Neurochemistry, 76, 173-181) Beginning at time 0, animals are administered by oral gavage, or other means of delivery such as intravenous injection, an inhibitory test compound of up to 100 mg/kg in a standard, conventional formulation, such as 2% hydroxypropyl methylcellulose, 1% Tween80. A separate group of animals receive 2% hydroxypropyl methylcellulose, 1% Tween80 alone, containing no test compound, and serve as a vehicle-control group. At the end of the test period, animals are sacrificed and brain tissues, plasma or cerebrospinal fluid are collected. Brains are either homogenized in 10 volumes (w/v) of 0.2% diethylamine (DEA) in 50 mM NaCl (Best et al., 2005, Journal of Pharmacology and Experimental Therapeutics, 313, 902-908), or in 10 volumes of 0.5% TritonX-100 in Tris-buffered saline (pH at about 7.6). Homogenates are centrifuged at 355,000 g, 4° C. for 30 minutes. CSF or brain supernatants are then analyzed for the presence of A-beta peptide by specific sandwich ELISA assays based on ECL (Electrochemiluminescence) technology. For example, rat Abeta40 is measured using biotinylated-4G8 (Signet) as a capture antibody and Fab40 (an in-house antibody specific to the C-terminal of Abeta40) as a detection antibody.
Actual vehicles used: Oral: 2% HPMC, 1% Tween80, pH 2.2

SMILES	% reduction of rat CSF levels at 10 pmk	% reduction of rat brain levels at 10 mpk
CC1(C)C(N)=N[C@](C)(c2cc(NC(=O)c3ccc(F)cn3)ccc2F)CS1(=O)=O [Example 18, N-(3-((3R)-5-amino-3,6,6-trimethyl-1,1-dioxido-3,6-dihydro-2H-1,4-thiazin-3-yl)-4-fluorophenyl)-5-fluoro-2-pyridinecarboxamide]	73%	57%
CC1(C)C(N)=N[C@](C)(c2cc(NC(=O)c3ccc(Cl)cn3)ccc2F)CS1(=O)=O [Example 19, N-(3-((3R)-5-amino-3,6,6-trimethyl-1,1-dioxido-3,6-dihydro-2H-1,4-thiazin-3-yl)-4-fluorophenyl)-5-chloro-2-pyridinecarboxamide]	83%	74%
COc1cnc(C(=O)Nc2ccc(F)c([C@]3(C)CS(=O)(=O)[C@@](C)(F)C(N)=N3)c2)cn1 [Example 30, N-(3-((3R,6R)-5-amino-6-fluoro-3,6-dimethyl-1,1-dioxido-3,6-dihydro-2H-1,4-thiazin-3-yl)-4-fluorophenyl)-5-methoxy-2-pyrazinecarboxamide]	56%	37%
CC1(C)C(N)=N[C@](C)(c2cc(Nc3nccc4cc(Cl)cnc34)ccc2F)CS1(=O)=O [Example 45, N-(3-((3R)-5-amino-3,6,6-trimethyl-1,1-dioxido-3,6-dihydro-2H-1,4-thiazin-3-yl)-4-fluorophenyl)-3-chloro-1,7-naphthyridin-8-amine]	63%	34%
COc1cnc2c(Nc3ccc(F)c([C@]4(C)CS(=O)(=O)C(C)(C)C(N)=N4)c3)nccc2c1 [Example 46, N-(3-((3R)-5-amino-3,6,6-trimethyl-1,1-dioxido-3,6-dihydro-2H-1,4-thiazin-3-yl)-4-fluorophenyl)-3-methoxy-1,7-naphthyridin-8-amine]	76%	64%
COc1cnc2c(Nc3ccc(F)c([C@]4(C)CS(=O)(=O)C(C)(C)C(N)=N4)c3)nccc2n1 [Example 47, N-(3-((3R)-5-amino-3,6,6-trimethyl-1,1-dioxido-3,6-dihydro-2H-1,4-thiazin-3-yl)-4-fluorophenyl)-2-methoxypyrido[3,4-b]pyrazin-5-amine]	82%	66%
CC1(C)C(N)=N[C@](C)(c2cc(Nc3nccc4cc(C#N)cnc34)ccc2F)CS1(=O)=O [Example 48, 8-((3-((3R)-5-amino-3,6,6-trimethyl-1,1-dioxido-3,6-dihydro-2H-1,4-thiazin-3-yl)-4-fluorophenyl)amino)-1,7-naphthyridine-3-carbonitrile]	79%	59%
CC1(C)C(N)=N[C@](C)(c2cc(Nc3ncc(F)c4cc(C#N)cnc34)ccc2F)CS1(=O)=O [Example 76, (R)-8-((3-(5-Amino-3,6,6-trimethyl-1,1-dioxido-3,6-dihydro-2H-1,4-thiazin-3-yl)-4-fluorophenyl)amino)-5-fluoro-1,7-naphthyridine-3-carbonitrile]	60%	46%
C[C@@]1(c2cc(NC(=O)c3ccc(Cl)cn3)ccc2F)CS(=O)(=O)C2(CC(F)(F)C2)C(N)=N1 [Example 120, (R)—N-(3-(9-amino-2,2-difluoro-7-methyl-5,5-dioxido-5-thia-8-azaspiro[3.5]non-8-en-7-yl)-4-fluorophenyl)-5-chloropicolinamide]	39%	18%
C[C@]1(c2cc(NC(=O)c3ccc(Cl)cn3)ccc2F)N=C(N)C2(CCC2)S(=O)(=O)[C@@H]1F [Example 131, N-(3-((6S,7R)-9-amino-6-fluoro-7-methyl-5,5-dioxido-5-thia-8-azaspiro[3.5]non-8-en-7-yl)-4-fluorophenyl)-5-chloropicolinamide]	10%	−18%
Cc1cc(OC(F)F)cnc1C(=O)Nc1ccc(F)c([C@@]2(C)N=C(N)C3(CCC3)S(=O)(=O)[C@@H]2F)c1 [Example 132, N-(3-((6S,7R)-9-amino-6-fluoro-7-methyl-5,5-dioxido-5-thia-8-azaspiro[3.5]non-8-en-7-yl)-4-fluorophenyl)-5-(difluoromethoxy)-3-methylpicolinamide]	31%	10%
Cc1cc(OC(F)F)cnc1C(=O)Nc1ccc(F)c([C@]2(C)CS(=O)(=O)C(C)(C)C(N)=N2)c1 [Example 144, (R)—N-(3-(5-amino-3,6,6-trimethyl-1,1-dioxido-3,6-dihydro-2H-1,4-thiazin-3-yl)-4-fluorophenyl)-5-(difluoromethoxy)-3-methylpicolinamide]	79%	72%
Cc1cc(OC(F)F)cnc1C(=O)Nc1ccc(F)c([C@]2(CF)CS(=O)(=O)C(C)(C)C(N)=N2)c1 [Example 148, (S)—N-(3-(5-amino-3-(fluoromethyl)-6,6-dimethyl-1,1-dioxido-3,6-dihydro-2H-1,4-thiazin-3-yl)-4-fluorophenyl)-5-(difluoromethoxy)-3-methylpicolinamide]	68%	57%
Cc1c(C(=O)Nc2ccc(F)c([C@]3(CF)CS(=O)(=O)C(C)(C)C(N)=N3)c2)nc2ccc(Cl)cn12 [Example 158, (S)—N-(3-(5-amino-3-(fluoromethyl)-6,6-dimethyl-1,1-dioxido-3,6-dihydro-2H-1,4-thiazin-3-yl)-4-fluorophenyl)-6-chloro-3-methylimidazo[1,2-a]pyridine-2-carboxamide]	11%	−5%
COc1cnc2c(Nc3ccc(F)c([C@]4(CF)CS(=O)(=O)C(C)(C)C(N)=N4)c3)ncc(F)c2c1 [Example 159, (S)-5-amino-3-(2-fluoro-5-((5-fluoro-3-methoxy-1,7-naphthyridin-8-yl)amino)phenyl)-3-(fluoromethyl)-6,6-dimethyl-3,6-dihydro-2H-1,4-thiazine 1,1-dioxide]	45%	31%
Cc1cc(OC(F)F)cnc1C(=O)Nc1cc([C@]2(C)CS(=O)(=O)C(C)(C)C(N)=N2)c(=O)n(C)c1 [Example 171, (R)—N-(5-(5-amino-3,6,6-trimethyl-1,1-dioxido-3,6-dihydro-2H-1,4-thiazin-3-yl)-1-methyl-6-oxo-1,6-dihydropyridin-3-yl)-5-(difluoromethoxy)-3-methylpicolinamide]	1%	3%
COc1cnc2c(Nc3ccc(F)c([C@]4(C)CS(=O)(=O)[C@@](C)(F)C(N)=N4)c3)ncnc2c1 [Example 177, (3R,6R)-5-Amino-6-fluoro-3-(2-fluoro-5-((7-methoxypyrido[3,2-d]pyrimidin-4-yl)amino)phenyl)-3,6-dimethyl-3,6-dihydro-2H-1,4-thiazine 1,1-dioxide]	37%	24%
CC1(C)C(N)=N[C@](CF)(c2cc(NC(=O)c3ccc(Cl)cn3)ccc2F)CS1(=O)=O [Example 193, (S)—N-(3-(5-amino-3-(fluoromethyl)-6,6-dimethyl-1,1-dioxido-3,6-dihydro-2H-1,4-thiazin-3-yl)-4-fluorophenyl)-5-chloropicolinamide]	57%	30%
Cc1cc(Cl)cnc1C(=O)Nc1ccc(F)c([C@]2(CF)CS(=O)(=O)C3(CC3)C(N)=N2)c1 [Example 216, (S)—N-(3-(8-amino-6-(fluoromethyl)-4,4-dioxido-4-thia-7-azaspiro[2.5]oct-7-en-6-yl)-4-fluorophenyl)-5-chloro-3-methylpicolinamide]	57%	14%
COc1cnc2c(Nc3cnc(F)c([C@]4(C)CS(=O)(=O)C(C)(C)C(N)=N4)c3)ncc(F)c2c1 [Example 219, N-(5-((3R)-5-amino-3,6,6-trimethyl-1,1-dioxido-3,6-dihydro-2H-1,4-thiazin-3-yl)-6-fluoro-3-pyridinyl)-5-fluoro-3-methoxy-1,7-naphthyridin-8-amine]	42%	9%
COc1cnc2c(Nc3cnc(F)c([C@]4(C)CS(=O)(=O)C(C)(C)C(N)=N4)c3)nccc2n1 [Example 222, N-(5-((3R)-5-amino-3,6,6-trimethyl-1,1-dioxido-3,6-dihydro-2H-1,4-thiazin-3-yl)-6-fluoro-3-pyridinyl)-2-methoxypyrido[3,4-b]pyrazin-5-amine]	65%	49%
